Experimental data reported in patent publication EP0922455A1, “HIV-1 PROTEASE INHIBITORS, PROCESS FOR PRODUCING THE SAME, AND MEDICINAL COMPOSITIONS” (NISSUI PHARMACEUTICAL CO., LTD., priority 1997, dated 1998).
Read-outs that look alike come from different tables or passages of the source. *1 amine or outer side, *2 acyl side, *3 side chain or, on linkers, in order; H or OH if unused. Where a SMILES comes first, the peptide text is derived from it. Where no end group is shown, it is not given here. [ ]: non-standard residue; d: D form. The star is where a group is joined. Myristoyl = CCCCCCCCCCCCCC(=O)*; Suc = O=C(CCC(=O)[*:2])[*:1]; Aoc = NCCCCCCCC(=O)O; Ahx = NCCCCCC(=O)O

Legend:
HIV-1 protease [1] = biological target: T1, HIV-1 protease (Human immunodeficiency virus type 1 group M subtype B, UniProt P03366); test: inhibitory activity against HIV-1 protease (cleavage of substrate Suc-Ser-Gln-Asn-Tyr-Pro-Ile-Val-Gln, HPLC / PICO-TAG analysis); assay type: biochemical; set-up: β-galactosidase (fusion partner in the expressed precursor); made in house; host or cells: E. coli K12 (UT481)
Protocol: (§1) Plasmid pLB550-1 for expressing a fusion protein of partial pol protein containing HIV-1 protease and β-galactosidase was transfected into E. coli K12 (UT481) [Werman, K. F. et al. J. Bacteriol, 163: 376 - 384 (1985)] by the CaCl2 method, and was enzyme-induced by isopropyl-β-D(-)-thiogalactopyranoside and was cultured for 6 hours. Thereafter, the bacteria were collected. The bacterial were treated with lysozyme and crashed with glass beads. Subsequently, the solubilized supernatant was purified by DEAE-cellulofine, SP-Toyopearl and pepstatin A agarose column chromatography, to obtain a purified HIV-1 protease.
Synthesized peptide composed of Suc-Ser-Gln-Asn-Tyr-Pro-Ile-Val-Gln as a substrate was dissolved into 50 mM MES-NaOH buffer solution (pH 5.5) so that its concentration in enzyme reaction would be 0.57 mM, 1.25 mM, 1.43 mM, 1.67 mM and 2.0 mM. Into 50 µl of these substrate solutions, 50 µl of the purified enzyme solution of HIV-1 protease, obtained in the aforementioned preparing step, was added and then enzyme reaction was carried out at 37°C for 0 , 5, 10 and 15 minutes, respectively. To these solutions, 11.1 µl of acetonitryl containing 1% TFA was added to stop the enzyme reaction. The peptides obtained by the enzyme reaction were separated by high-performance liquid chromatography. Thereafter, enzyme activity thereof was measured by means of a PICO-TAG amino acid composition analyzing device. The initial velocities at the respective concentrations of the substrate were calculated and then analysis was performed based on by Lineweaver-Burk plots. […] In the substrate, the cleavage region was between Tyr and Pro.
On the other hand, the synthesized peptide, Suc-Ser-Gln-Asn-Tyr-Pro-Ile-Val-Gln as a substrate was used to measure inhibitory activity of the peptide of the sequence number 1 against HIV-1 protease as follows: 50 µl of the enzyme solution was added to 30 µl of solution of the peptide of the sequence number 1 in which the peptide was dissolved into 50 mM of MES-NaOH buffer solution (pH 5.5) so that its final concentration would be 10, 20, 40, 100 and 200 µM, and then enzyme reaction was carried out at 37 °C for 30 minutes.
Next, the solution of the substrate, Suc-Ser-Gln-Asn-Tyr-Pro-Ile-Val-Gln was added thereto so that its final concentration would be 1 mM, and then enzyme reaction was carried out at 37 °C for 0, 5, 10 and 15 minutes. To these solutions, 11.1 µl of acetonitryl containing 1% TFA was added to stop the enzyme reaction. The peptides obtained by the enzyme reaction were separated by high-performance liquid chromatography. Thereafter, enzyme activity thereof was measured by means of a PICO-TAG amino acid composition analyzing device. […] (The relative activity is represented as a percentage relative to the enzyme activity (value: 100) in the absence of the peptide of the sequence number 2.) From this graph, IC50 was calculated and obtained, so that IC50 was 10 µM.
50 µl of the enzyme solution was added to 30 µl of the peptide of the sequence number 2 dissolved into 50 mM of MES-NaOH buffer solution so that its final concentration would be 10 µM and then enzyme reaction was carried out at 37 °C for 30 minutes. The solution of the substrate, Suc-Ser-Gln-Asn-Tyr-Pro-Ile-Val-Gln was added thereto so that its final concentration would be 0.579 1.0, 1.43, 2.0 and 2.5 mM, and then enzyme reaction was carried out at 37 °C for 0, 5, 10 and 15 minutes. To these solutions, 11.1 µl of acetonitryl containing 1% TFA was added to stop the enzyme reaction, and then analysis was performed from Lineweaver-Burk plots. […] A control experiment was carried out in the absence of the peptide of the sequence number 2, in the same way.
(§2) Concerning these 30 kinds of compounds, inhibitory effect against of HIV protease and IC50 were measured in the same way as in 2) in Example 1.

HIV-1 protease [2] = biological target: T1, HIV-1 protease; set-up: β-galactosidase (fusion partner in the expressed precursor); made in house; host or cells: E. coli K12 (UT481); settings: Biochem. Biophys. Res. Commun. 194: 595 - 600; cited from earlier work
HIV-1 protease [3] = biological target: T1, HIV-1 protease; test: inhibitory activity against HIV-1 protease (cleavage of substrate Suc-Ser-Gln-Asn-Tyr-Pro-Ile-Val-Gln, HPLC / PICO-TAG analysis); assay type: biochemical; set-up: partial pol protein containing HIV-1 protease; β-galactosidase (fusion partner in the expressed precursor); made in house; host or cells: E. coli K12 (UT481); settings: same way as in 2) in Example 1
Protocol: as §1
Synthesized peptide composed of Suc-Ser-Gln-Asn-Tyr-Pro-Ile-Val-Gln as a substrate was dissolved into 50 mM MES-NaOH buffer solution (pH 5.5) so that its concentration in enzyme reaction would be 0.57 mM, 1.25 mM, 1.43 mM, 1.67 mM and 2.0 mM. […] Thereafter, enzyme activity thereof was measured by means of a PICO-TAG amino acid composition analyzing device. The initial velocities at the respective concentrations of the substrate were calculated and then analysis was performed based on by Lineweaver-Burk plots. […]
as §2

[4] = class symbols, inhibitory effect at 500 µM or less, read-out: IC50(µM) (Inhibitory effect)
[5] = same way as in 2) in Example 1, read-out: IC50

| Molecule | IC50 (HIV-1 protease [1]; [4]) | further results |
| --- | --- | --- |
| CSCC[C@H](NC(=O)CCCCCCCN)C(=O)O [Compound 27, N-AocM] | ≥ 500 µM |  |
| CSCC[C@H](NC(=O)CCCCCCCN)C(=O)NCCCCCCCC(=O)O [Compound 28, N-AocMAoc] | ≥ 500 µM |  |
| AEAMSQ [Compound 17, AEAMSQ] | ≥ 500 µM |  |
| AEAMSQVTL [Compound 11, AEAMSQVTL] |  | IC50 (HIV-1 protease [1]; [5]): 53 µM |
| VTNTATIM [Compound 22, VTNTATIM] | ≥ 500 µM |  |
| AEAMSQVAN [Compound 10, AEAMSQVAN] | ≥ 500 µM |  |
| CCCCCCCCCCCCCC(=O)N[C@@H](C)C(=O)N[C@@H](CCC(=O)O)C(=O)N[C@@H](C)C(=O)N[C@@H](CCSC)C(=O)O [Compound 20, N-Myr-AEAM] (Myristoyl-AEAM-OH) |  | IC50 (HIV-1 protease [1]; [5]): 16 µM |
| CSCC[C@H](NC(=O)[C@H](C)NC(=O)[C@H](CCC(=O)O)NC(=O)[C@H](C)N)C(=O)N[C@@H](CO)C(=O)N[C@@H](CCC(N)=O)C(=O)NCCCCCCCC(=O)O [Compound 14, AEAMSQAoc] (H-AEAMSQ[Aoc]-OH) | ≥ 500 µM |  |
| CSCC[C@H](NC(=O)[C@H](C)NC(=O)[C@H](CCC(=O)O)NC(=O)[C@H](C)N)C(=O)N[C@@H](CO)C(=O)N[C@@H](CCC(N)=O)C(=O)NCCCCCC(=O)O [Compound 15, AEAMSQAhx] (H-AEAMSQ[Ahx]-OH) | ≥ 500 µM |  |
| AEAMSQVT [Compound 12, AEAMSQVT] | ≥ 500 µM |  |
| AAAMSQVTN [Compound 7, AAAMSQVTN] | ≤ 500 µM |  |
| AEAMAQVTN [Compound 9, AEAMAQVTN] | ≤ 500 µM |  |
| AEAASQVTN [Compound 8, AEAASQVTN] | ≥ 500 µM |  |
| Ac-TVSFNF |  | inhibitory activity (HIV-1 protease [2]): has inhibitory activity |
| CSCC[C@H](NC(=O)CCCCCCCNC(=O)CCCCCCCN)C(=O)NCCCCCCCC(=O)O [Compound 30, N-AocAocMAoc] | ≥ 500 µM |  |
| CC(C)[C@H](N)C(=O)N[C@H](C(=O)N[C@@H](CC(N)=O)C(=O)O)[C@@H](C)O [Compound 21, VTN] (H-Val-Thr-Asn-OH) | ≥ 500 µM |  |
| CSCC[C@H](NC(=O)[C@H](C)NC(=O)[C@H](CCC(=O)O)NC(=O)[C@H](C)N)C(=O)O [Compound 19, AEAM] (H-AEAM-OH) | ≥ 500 µM |  |
| CC[C@H](C)[C@H](NC(=O)[C@@H](NC(=O)[C@H](C)NC(=O)[C@@H](NC(=O)[C@H](CC(N)=O)NC(=O)[C@@H](NC(=O)[C@@H](NC(=O)[C@H](CCC(N)=O)NC(=O)[C@H](CO)NC(=O)[C@H](CCSC)NC(=O)[C@H](C)NC(=O)[C@H](CCC(=O)O)NC(=O)[C@H](C)N)C(C)C)[C@@H](C)O)[C@@H](C)O)[C@@H](C)O)C(=O)N[C@@H](CCSC)C(=O)O [Compound 4, AEAMSQVTNTATIM] | ≤ 500 µM |  |
| AEAMSQVTN [Compound 6, AEAMSQVTN] |  | IC50 (HIV-1 protease [1]; [5]): 6 µM |
| CC[C@H](C)[C@H](NC(=O)[C@@H]1CCCN1C(=O)[C@H](Cc1ccc(O)cc1)NC(=O)[C@H](CC(N)=O)NC(=O)[C@H](CCC(N)=O)NC(=O)[C@H](CO)NC(=O)CCC(=O)O)C(=O)N[C@H](C(=O)N[C@@H](CCC(N)=O)C(=O)O)C(C)C [Suc-Ser-Gln-Asn-Tyr-Pro-Ile-Val-Gln, reference compound] (Suc-SQNYPIVQ-OH) |  | Km (HIV-1 protease [1]; substrate 0.57-2.0 mM, pH 5.5, 37°C, Lineweaver-Burk plots (Fig. 1)): 2200 µM |
| CCCCCCCCCCCC(=O)N[C@@H](CCSC)C(=O)O [Compound 25, N-Lau-M] |  | IC50 (HIV-1 protease [3]): 124 µM |
| AEAMSQV [Compound 13, AEAMSQV] | ≥ 500 µM |  |
| CSCC[C@H](NC(=O)[C@H](C)NC(=O)[C@H](CCC(=O)O)NC(=O)[C@H](C)NC(=O)CCC(=O)O)C(=O)N[C@@H](CO)C(=O)N[C@@H](CCC(N)=O)C(=O)NCCCCCC(=O)O [Compound 16, Suc-AEAMSQAhx] (Suc-AEAMSQ[Ahx]-OH) | ≥ 500 µM |  |
| AEAMSQVTNSATIM [Compound 2, AEAMSQVTNSATIM] |  | IC50 (HIV-1 protease [1]; [5]): 22 µM |
| CCCCCCCCCCCCCC(=O)N[C@@H](C)C(=O)N[C@@H](CCC(=O)O)C(=O)N[C@@H](C)C(=O)N[C@@H](CCSC)C(=O)N[C@@H](CO)C(=O)N[C@@H](CCC(N)=O)C(=O)O [Compound 18, N-Myr-AEAMSQ] (Myristoyl-AEAMSQ-OH) |  | IC50 (HIV-1 protease [1]; [5]): 79 µM |
| AEAMSQVANTATIM [Compound 5, AEAMSQVANTATIM] | ≤ 500 µM |  |
| CCCCCCCCCCCCCC(=O)N[C@@H](CCSC)C(=O)O [Compound 23, N-Myr-M] |  | IC50 (HIV-1 protease [3]): 44 µM |
| CC[C@H](C)[C@H](NC(=O)[C@@H](NC(=O)[C@H](C)NC(=O)[C@@H]1CCCN1C(=O)[C@H](CC(N)=O)NC(=O)[C@@H](NC(=O)[C@@H](NC(=O)[C@H](CCC(N)=O)NC(=O)[C@H](CO)NC(=O)[C@H](CCSC)NC(=O)[C@H](C)NC(=O)[C@H](CCC(=O)O)NC(=O)[C@H](C)N)C(C)C)[C@@H](C)O)[C@@H](C)O)C(=O)N[C@@H](CCSC)C(=O)O [Compound 3, AEAMSQVTNPATIM] | ≥ 500 µM |  |
| CSCC[C@H](NC(=O)CCCCCCCN)C(=O)NCCCCCCCC(=O)NCCCCCCCC(=O)O [Compound 29, N-AocMAocAoc] | ≥ 500 µM |  |
